Assay [1] in a line: The compound was evaluated for inhibition of Glutaminyl-tRNA synthetase with respect to glutamine.
In assay [2] the target is Glutamine--tRNA ligase (Escherichia coli) (UniProt P00962). Put plainly: The compound was evaluated for inhibition of Glutaminyl-tRNA synthetase for Escherichia coli with respect to ATP.

What is called Ki is the dissociation constant of the complex between target and ligand, obtained from inhibition or displacement. A low value points to higher affinity.

Molecules are shown by their SMILES.

Glutamine--tRNA ligase (Escherichia coli), sequence (P00962 whole entry, looked up): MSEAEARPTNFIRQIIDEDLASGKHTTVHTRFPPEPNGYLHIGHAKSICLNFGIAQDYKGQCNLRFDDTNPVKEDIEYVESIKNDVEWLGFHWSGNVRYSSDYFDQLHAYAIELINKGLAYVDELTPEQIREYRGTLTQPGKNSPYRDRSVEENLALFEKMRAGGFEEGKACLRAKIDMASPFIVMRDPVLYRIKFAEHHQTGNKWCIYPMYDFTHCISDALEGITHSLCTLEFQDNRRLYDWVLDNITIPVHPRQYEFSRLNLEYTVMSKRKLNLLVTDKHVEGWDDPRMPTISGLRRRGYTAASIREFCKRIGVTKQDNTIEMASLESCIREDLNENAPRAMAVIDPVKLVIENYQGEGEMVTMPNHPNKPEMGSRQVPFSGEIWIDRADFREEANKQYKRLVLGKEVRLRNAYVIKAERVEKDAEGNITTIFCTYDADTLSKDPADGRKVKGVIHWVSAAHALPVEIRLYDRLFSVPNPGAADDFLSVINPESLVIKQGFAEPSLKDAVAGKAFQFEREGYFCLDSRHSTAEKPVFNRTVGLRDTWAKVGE

As for `NC(=O)CCC(N)COP(=O)(O)OC[C@H]1OC(n2cnc3c(N)ncnc32)[C@H](O)[C@@H]1O` (some centres not stated), the Ki is 280 nM in assay [1] and 860 nM in assay [2].

(Values after BindingDB's records for doi:10.1016/s0960-894x(00)00478-9 (Laval University, 2001).)
